Measurements reported in patent publication US20230391772A1, “METHODS AND COMPOSITIONS FOR TARGETED PROTEIN DEGRADATION” (Ranok Therapeutics (Hangzhou) Co. Ltd., priority 2020, published 2023).

Key:
[1] = target: T1, HSP90a protein (Homo sapiens, UniProt P07900); test: HSP90α-binding fluorescent polarization (FP) assay, FITC-geldanamycin probe; settings: FP competition with FITC-geldanamycin, 5 nM, 120 min at 25° C.
T1 construct: purchased BPS Bioscience 50298
Description: HSP90α-Binding Fluorescent Polarization (FP) Assay
Binding of test compounds to HSP90a protein was measured by fluorescent polarization (FP) using the HSP90a (N-terminal) Assay Kit (BPS Bioscience, #50298), following the manufacturer's instructions, except as noted. Fluorescently labeled HSP90-binding compounds, either the provided FITC-geldanamycin (5 nM final concentration) or RNK04010, a triazolone-based HSP90 binding small molecule labeled with BODIPY through a piperizine-phenyl linker (5 nM final concentration) were employed. A 2.5-fold serial dilution of each test compound ranging from 20 μM to 5.2 nM was assayed for binding to HSP90a. After the final step of adding HSP90a protein to each assay well, plates were mixed by brief shaking, incubated at 25° C. for 120 min for FITC-geldanamycin or 300 min for RNK04010, and fluorescence was measured using a PerkinElmer EnVision Plate Reader.

[2] = test system: MIA PaCa-2 human pancreatic carcinoma; test: MIA PaCa-2 CCK-8 proliferation assay; type: cell-based; settings: Homo sapiens, MIA PaCa-2, 72 h, MIA PaCa-2 cells
Method in brief: (§1)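 Proliferation of mutant-KRAS(G12C) cells (2 copies in MIA PaCa-2, single copy in NCI-H358/NCI-H23) measured with CCK-8 after treatment across 20 μM–1.02 nM; inhibition expressed relative to vehicle-treated wells after subtracting no-cell background.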

[3] = test system: NCI-H358 human non-small cell lung cancer; test: NCI-H358 CCK-8 proliferation assay; type: cell-based; settings: NCI-H358 cells, 72 hr
Method in brief: as §1

[4] = target: T2, KRAS(G12C) (Homo sapiens, UniProt P01116, G12C); test: KRAS(G12C) Western blot protein degradation assay in MIA PaCa-2 cells; type: cell-based; parameters: host or cells: LU65A; settings: 48 hr; for inhibition at 0.1562 µM: 156.2 nM; for inhibition at 0.3125 µM: 312.5 nM; for inhibition at 0.625 µM: 625 nM; for inhibition at 1.25 µM: 1250 nM; for inhibition at 2.5 µM: 2500 nM; for inhibition at 5 µM: 5000 nM; for inhibition at 10 µM: 10,000 nM
T2 sequence (P01116 1-188 isoform P01116-2 G12C): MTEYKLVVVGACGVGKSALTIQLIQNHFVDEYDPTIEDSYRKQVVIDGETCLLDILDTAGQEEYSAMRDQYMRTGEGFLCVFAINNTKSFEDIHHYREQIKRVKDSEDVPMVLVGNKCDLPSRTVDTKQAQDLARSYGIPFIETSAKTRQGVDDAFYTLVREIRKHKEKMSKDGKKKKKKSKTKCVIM
Description: The following cancer cell lines were employed: BT-474 human breast carcinoma (ATCC, #HTB-20); MIA PaCa-2 human pancreatic carcinoma [2 copies KRAS(G12C)](ATCC, #CRL-1420); NCI-H23 human non-small cell lung cancer [1 copy KRAS(G12C)](ATCC, #CRL-5800); NCI-H358 human non-small cell lung cancer [1 copy KRAS(G12C)](ATCC, #CRL-5807); LU65A human lung carcinoma (Pharmaron, Beijing, China). Cell lines were cultured essentially according to ATCC and Pharmaron recommendations.
KRAS(G12C) Western Blot Protein Degradation Assay
The MIA PaCa-2 human pancreatic carcinoma cell line and LU65A human lung cancer cell line, which expresses KRAS(G12C), were seeded in 6- or 12-well tissue culture plates, and after 1 hr, test compounds were added at various concentrations and incubated at 37° C./5% CO2 for 48 hr (MIA Paca-2) and 6 hr (LU65A) respectively. Cells were then washed with cold PBS, aspirated and cold RIPA buffer containing a protease/phosphatase inhibitor cocktail was added to lyse cells. After centrifugation, the total protein concentrations of cell lysates were determined using the BCA protein assay. Samples were normalized for equivalent protein concentrations, 5×SDS-PAGE loading buffer added and denatured at 100° C. for 10 min. 20 μl of each sample/well was loaded on a SDS-PAGE gel and electrophoresed for 20 min at 80 V, then 120 V for 1.5 hr. Gels were then electroblotted to nitrocellulose membranes using a wet-transfer method at 250 mA for 2.5 hr. Membranes were incubated with blocking buffer for 1 hr and washed 3 times with TBST for 5 min. Membranes were then incubated with anti-KRAS (Sigma-Aldrich, #SAB1404011) and anti-β-Actin monoclonal antibodies (Cell Signaling Technology, #3700) diluted in blocking buffer at 4° C. overnight per the manufacturer's recommendations. After washing 3 times, blots were incubated with appropriately labeled secondary antibodies for 1 hr at room temperature and washed again. Fluorescence imaging and quantitation was performed using a LI-COR Odyssey. Results was analyzed using GraphPad Prism 7 software. Compound degradation of was determined by the following equation and DC50 values (the concentration at which 50% of the maximal degradation of KRAS occurs) calculated using GraphPad Prism 7 software:
% Inhibition=100−(D−B)/(S−B)*100%. • S: Fluorescence intensity of cells with antibody • D: Fluorescence intensity of compound-treated cells with antibody • B: Fluorescence intensity of cells without antibody

[5] = target: T2, KRAS(G12C); test: KRAS(G12C)/SOS1 homogeneous time-resolved fluorescence (HTRF) assay; parameters: purchased Cisbio 63ADK000CB16PEG; settings: absence of GTP, 4° C. for 3 hr, read-out: KRAS (G12C) binding
Method in brief: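 HTRF kit measuring compound-induced block of KRAS(G12C)-SOS1 interaction without GTP. Compounds tested as 3-fold serial dilutions down to 1.02 nM, incubated with reaction components 3 h at 4 °C in sealed plates before fluorescence read.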

Row | Compound | IC50 [1] [nM] | EC50 [2] [nM] | EC50 [3] [nM] | inhibition at 0.1562 µM [4] [%] | inhibition at 0.3125 µM [4] [%] | inhibition at 0.625 µM [4] [%] | inhibition at 1.25 µM [4] [%] | inhibition at 2.5 µM [4] [%] | inhibition at 5 µM [4] [%] | inhibition at 10 µM [4] [%] | IC50 [5] [nM]
1 | C=CC(=O)N1CCN(c2nc(OC[C@@H]3CCCN3C(=O)C3CCN(Cc4ccc(-n5c(O)nnc5-c5cc(C(C)C)c(O)cc5O)cc4)CC3)nc3c2CCN(c2cccc4cccc(Cl)c24)C3)C[C@@H]1CC#N [Compound 139, 2-((S)-1-acryloyl-4-(7-(8-chloronaphthalen-1-yl)-2-(((S)-1-(1-(4-(3-(2,4-dihydroxy-5-isopropylphenyl)-5-hydroxy-4H-1,2,4-triazol-4-yl)benzyl)piperidine-4-carbonyl)pyrrolidin-2-yl)methoxy)-5,6,7,8-tetrahydropyrido[3,4-d]pyrimidin-4-yl)piperazin-2-yl)acetonitrile] | 100 to 1000 | > 1000 | 100 to 1000 | < 33 | < 33 | < 33 | < 33 | < 33 | < 33 | < 33 | > 1000
2 | C=C(F)C(=O)N1CCN(c2nc(OC[C@@H]3CCN(C(=O)C4CCN(Cc5ccc(-n6c(C(=O)NCC(F)(F)F)nnc6-c6cc(C(C)C)c(O)cc6O)cc5)CC4)C3)nc3c2CCN(c2cccc4cccc(Cl)c24)C3)C[C@@H]1CC#N [Compound 168, 4-(4-((4-((R)-3-(((7-(8-chloronaphthalen-1-yl)-4-((S)-3-(cyanomethyl)-4-(2-fluoroacryloyl)piperazin-1-yl)-5,6,7,8-tetrahydropyrido[3,4-d]pyrimidin-2-yl)oxy)methyl)pyrrolidine-1-carbonyl)piperidin-1-yl)methyl)phenyl)-5-(2,4-dihydroxy-5-isopropylphenyl)-N-(2,2,2-trifluoroethyl)-4H-1,2,4-triazole-3-carboxamide] | 100 to 1000 | < 100 |  | < 33 | < 33 | < 33 | 33 to 66 | 33 to 66 | 33 to 66 | 33 to 66 | 
3 | CCC(=O)N1CCN(c2nc(OCC3CCN(C(=O)C4CCN(Cc5ccc(-n6c(O)nnc6-c6cc(C(C)C)c(O)cc6O)cc5)CC4)CC3)nc3c2CCN(c2cccc4cccc(Cl)c24)C3)C[C@@H]1CC#N [Compound 147, (S)-2-(4-(7-(8-chloronaphthalen-1-yl)-2-((1-(1-(4-(3-(2,4-dihydroxy-5-isopropylphenyl)-5-hydroxy-4H-1,2,4-triazol-4-yl)benzyl)piperidine-4-carbonyl)piperidin-4-yl)methoxy)-5,6,7,8-tetrahydropyrido[3,4-d]pyrimidin-4-yl)-1-propionylpiperazin-2-yl)acetonitrile] | < 100 | 100 to 1000 | 100 to 1000 |  |  |  |  |  |  |  | 
4 | C=C(F)C(=O)N1CCN(c2nc(OC[C@@H]3CCN(C(=O)C4CCN(Cc5ccc(-n6c(O)nnc6-c6cc(C(C)C)c(O)cc6O)cc5)CC4)C3)nc3c2CCN(c2cccc4cccc(Cl)c24)C3)C[C@@H]1CC#N [Compound 145, 2-((S)-4-(7-(8-chloronaphthalen-1-yl)-2-(((R)-1-(1-(4-(3-(2,4-dihydroxy-5-isopropylphenyl)-5-hydroxy-4H-1,2,4-triazol-4-yl)benzyl)piperidine-4-carbonyl)pyrrolidin-3-yl)methoxy)-5,6,7,8-tetrahydropyrido[3,4-d]pyrimidin-4-yl)-1-(2-fluoroacryloyl)piperazin-2-yl)acetonitrile, acetic acid] | 100 to 1000 | 100 to 1000 | 100 to 1000 |  |  |  |  |  |  |  | 
5 | CCC(=O)N1CCN(c2nc(NCCCNC(=O)C3CCN(Cc4ccc(-n5c(O)nnc5-c5cc(C(C)C)c(O)cc5O)cc4)CC3)nc3c2CCN(c2cccc4cccc(Cl)c24)C3)C[C@@H]1CC#N [Compound 134, (S)—N-(3-((7-(8-chloronaphthalen-1-yl)-4-(3-(cyanomethyl)-4-propionylpiperazin-1-yl)-5,6,7,8-tetrahydropyrido[3,4-d]pyrimidin-2-yl)amino)propyl)-1-(4-(3-(2,4-dihydroxy-5-isopropylphenyl)-5-hydroxy-4H-1,2,4-triazol-4-yl)benzyl)piperidine-4-carboxamide, trifluoroacetic acid] | 100 to 1000 |  | > 1000 |  |  |  |  |  |  |  | 
6 | C=C(F)C(=O)N1CCN(c2nc(N3CCN(Cc4ccc(-n5c(O)nnc5-c5cc(CC)c(O)cc5O)cc4)CC3)nc3c2CCN(c2cccc4cccc(Cl)c24)C3)C[C@@H]1CC#N [Compound 143, (S)-2-(4-(7-(8-chloronaphthalen-1-yl)-2-(4-(4-(3-(5-ethyl-2,4-dihydroxyphenyl)-5-hydroxy-4H-1,2,4-triazol-4-yl)benzyl)piperazin-1-yl)-5,6,7,8-tetrahydropyrido[3,4-d]pyrimidin-4-yl)-1-(2-fluoroacryloyl)piperazin-2-yl)acetonitrile] | > 1000 |  | > 1000 |  |  |  |  |  |  |  | 
7 | CCC(=O)N1CCN(c2nc(OC[C@@H]3CCCN3C(=O)C3CCN(Cc4ccc(-n5c(O)nnc5-c5cc(C(C)C)c(O)cc5O)cc4)CC3)nc3c2CCN(c2cccc4cccc(Cl)c24)C3)C[C@@H]1CC#N [Compound 140, 2-((S)-4-(7-(8-chloronaphthalen-1-yl)-2-(((S)-1-(1-(4-(3-(2,4-dihydroxy-5-isopropylphenyl)-5-hydroxy-4H-1,2,4-triazol-4-yl)benzyl)piperidine-4-carbonyl)pyrrolidin-2-yl)methoxy)-5,6,7,8-tetrahydropyrido[3,4-d]pyrimidin-4-yl)-1-propionylpiperazin-2-yl)acetonitrile] | 100 to 1000 |  | 100 to 1000 |  |  |  |  |  |  |  | 
8 | C=C(F)C(=O)N1CCN(c2nc(N3CCC(CN4CCN(Cc5ccc(-n6c(O)nnc6-c6cc(CC)c(O)cc6O)cc5)CC4)CC3)nc3c2CCN(c2cccc4cccc(Cl)c24)C3)C[C@@H]1CC#N [Compound 135, (S)-2-(4-(7-(8-chloronaphthalen-1-yl)-2-(4-((4-(4-(3-(5-ethyl-2,4-dihydroxyphenyl)-5-hydroxy-4H-1,2,4-triazol-4-yl)benzyl)piperazin-1-yl)methyl)piperidin-1-yl)-5,6,7,8-tetrahydropyrido[3,4-d]pyrimidin-4-yl)-1-(2-fluoroacryloyl)piperazin-2-yl)acetonitrile] | 100 to 1000 |  | > 1000 |  |  |  |  |  |  |  | 
